Test results taken from patent publication US9573966B2, “Anti-cancer activity of novel bicyclic heterocycles” (Katholieke Universiteit Leuven, K.U.Leuven R&D, priority 2010, dated 2017).

tested on: HSB-2 cells; assay: Inhibition of HSB-2 leukemic cell line proliferation (WST-1); format: cell-based, human; details: Homo sapiens, HSB2, 48 h, cytotoxicity on HSB-2 cells, two days incubation, WST-1 read-out
Protocol: HSB2 cell line, a human acute lymphoblastic leukemia (ATCC; CCL-120.1) cell line, was grown in RPMI-1640 medium (Lonza, Belgium) supplemented with 10% fetal calf serum (Hyclone, US) and antibiotics. Exponential growing phase cells were seed in flat bottom 96-well microplates (TTP, Switzerland) at 50000 cells per well in 220 μl of medium with compounds (in different concentrations) and incubated for two days at 37° C., 5% CO2. After incubation, 100 μl of supernatant were removed and 10 μl of WST-1 (Roche, Switzerland) were added. After 2 hour incubation at 37° C., 5% CO2, optical densities were measured at 450 nm. Proliferation is calculated with respect of control points (no compound and treatment with Triton X100 to have maximum and minimum proliferation data). The IC50 was determined from a graph with at least four points, each derived from the mean of at least 2 experiments. […] The results are shown in Table 1 for a number of compounds.

| Compound | IC50 [µM] |
| --- | --- |
| COc1ccc(OCC(=O)N2CCN(c3nc(N)nc4sc(-c5ccc(F)cc5)nc34)CC2)cc1 [Example 234, 1-(4-(5-amino-2-(4-fluorophenyl)thiazolo[5,4-d]pyrimidin-7-yl)piperazin-1-yl)-2-(4-methoxyphenoxy)ethanone] | 0.2 |
| Cc1ccc(CCc2nc3c(N4CCN(C(=O)COc5ccc(Cl)cc5)CC4)nc(N)nc3s2)cc1 [Example 260, 1-(4-(5-amino-2-(4-methylphenethyl)thiazolo[5,4-d]pyrimidin-7-yl)piperazin-1-yl)-2-(4-chlorophenoxy)ethanone] | 4.49 |
| COc1cccc(CCc2nc3c(N4CCN(C(=O)COc5ccc(Br)cc5)CC4)nc(N)nc3s2)c1 [Example 254, 1-(4-(5-amino-2-(3-methoxyphenethyl)thiazolo[5,4-d]pyrimidin-7-yl)piperazin-1-yl)-2-(4-bromophenoxy)ethanone] | > 10 |
| Nc1nc(N2CCN(C(=O)COc3ccc(OC(F)(F)F)cc3)CC2)c2nc(CCc3ccc(F)cc3)sc2n1 [Example 226, 1-(4-(5-amino-2-(4-fluorophenethyl)thiazolo[5,4-d]pyrimidin-7-yl)piperazin-1-yl)-2-(4-(trifluoromethoxy)phenoxy)ethanone] | > 10 |
| COc1ccc(OCC(=O)N2CCN(c3nc(N)nc4sc(CCc5ccc(OC)c(OC)c5)nc34)CC2)cc1 [Example 257, 1-(4-(5-amino-2-(3,4-dimethoxyphenethyl)thiazolo[5,4-d]pyrimidin-7-yl)piperazin-1-yl)-2-(4-methoxyphenoxy)ethanone] | > 10 |
| COc1ccc(OCC(=O)N2CCN(c3nc(N)nc4sc(-c5ccc(C)cc5)nc34)CC2)cc1 [Example 294, 1-(4-(5-amino-2-p-tolylthiazolo[5,4-d]pyrimidin-7-yl)piperazin-1-yl)-2-(4-methoxyphenoxy)ethanone] | 4.16 |
| COc1ccc(OCC(=O)N2CCN(c3nc(N)nc4sc(CCCc5ccc(F)cc5)nc34)CC2)cc1 [Example 291, 1-(4-(5-amino-2-(3-(4-fluorophenyl)propyl)thiazolo[5,4-d]pyrimidin-7-yl)piperazin-1-yl)-2-(4-methoxyphenoxy)ethanone] | > 10 |
| Cc1ccc(-c2nc3c(N4CCN(C(=O)COc5ccc(Cl)cc5)CC4)nc(N)nc3s2)cc1 [Example 295, 1-(4-(5-amino-2-p-tolylthiazolo[5,4-d]pyrimidin-7-yl)piperazin-1-yl)-2-(4-chlorophenoxy)ethanone] | 0.23 |
| COc1cccc(CCc2nc3c(N4CCN(C(=O)COc5ccc(Cl)cc5)CC4)nc(N)nc3s2)c1 [Example 255, 1-(4-(5-amino-2-(3-methoxyphenethyl)thiazolo[5,4-d]pyrimidin-7-yl)piperazin-1-yl)-2-(4-chlorophenoxy)ethanone] | 2.1 |
| Nc1nc(N2CCN(C(=O)COc3ccc(Cl)cc3)CC2)c2nc(-c3ccccc3)sc2n1 [Example 215, 1-(4-(5-amino-2-phenylthiazolo[5,4-d]pyrimidin-7-yl)piperazin-1-yl)-2-(4-chlorophenoxy)ethanone] | 0.24 |
| COc1ccc(OCC(=O)N2CCN(c3nc(N)nc4sc(CCc5ccc(C)cc5)nc34)CC2)cc1 [Example 259, 1-(4-(5-amino-2-(4-methylphenethyl)thiazolo[5,4-d]pyrimidin-7-yl)piperazin-1-yl)-2-(4-methoxyphenoxy)ethanone] | 3 |
| Nc1nc(N2CCN(C(=O)COc3ccc(Cl)cc3)CC2)c2nc(CCc3ccc(Br)cc3)sc2n1 [Example 299, 1-(4-(5-amino-2-(4-bromophenethyl)thiazolo[5,4-d]pyrimidin-7-yl)piperazin-1-yl)-2-(4-chlorophenoxy)ethanone] | 3.72 |
| Nc1nc(N2CCN(C(=O)COc3ccc(Cl)cc3)CC2)c2nc(CCCCc3ccc(F)cc3)sc2n1 [Example 292, 1-(4-(5-amino-2-(4-(4-fluorophenyl)butyl)thiazolo[5,4-d]pyrimidin-7-yl)piperazin-1-yl)-2-(4-chlorophenoxy)ethanone] | 9.79 |
| Cc1ccc(CCc2nc3c(N4CCN(C(=O)COc5ccc(Br)cc5)CC4)nc(N)nc3s2)cc1 [Example 258, 1-(4-(5-amino-2-(4-methylphenethyl)thiazolo[5,4-d]pyrimidin-7-yl)piperazin-1-yl)-2-(4-bromophenoxy)ethanone] | > 10 |
| COc1ccc(OCC(=O)N2CCN(c3nc(N)nc4sc(CCc5cccc(OC)c5)nc34)CC2)cc1 [Example 253, 1-(4-(5-amino-2-(3-methoxyphenethyl)thiazolo[5,4-d]pyrimidin-7-yl)piperazin-1-yl)-2-(4-methoxyphenoxy)ethanone] | 4.99 |
| Nc1nc(N2CCN(C(=O)COc3ccc(Br)cc3)CC2)c2cc(-c3ccccc3)sc2n1 [Example 372, 1-(4-(2-amino-6-phenylthieno[2,3-d]pyrimidin-4-yl)piperazin-1-yl)-2-(4-bromophenoxy)ethanone] | 9.87 |
| CC(=O)c1ccc(OCC(=O)N2CCN(c3nc(N)nc4sc(CCc5ccc(F)cc5)nc34)CC2)cc1 [Example 227, 2-(4-acetylphenoxy)-1-(4-(5-amino-2-(4-fluorophenethyl)thiazolo[5,4-d]pyrimidin-7-yl)piperazin-1-yl)ethanone] | > 10 |
| Nc1nc(N2CCN(C(=O)COc3ccc(Cl)cc3)CC2)c2nc(CCCc3ccc(F)cc3)sc2n1 [Example 290, 1-(4-(5-amino-2-(3-(4-fluorophenyl)propyl)thiazolo[5,4-d]pyrimidin-7-yl)piperazin-1-yl)-2-(4-chlorophenoxy)ethanone] | > 10 |
| Nc1nc(N2CCN(C(=O)COc3ccc(F)cc3)CC2)c2cc(-c3ccccc3)sc2n1 [Example 370, 1-(4-(2-amino-6-phenylthieno[2,3-d]pyrimidin-4-yl)piperazin-1-yl)-2-(4-fluorophenoxy)ethanone] | 6.38 |
| COC(=O)c1ccc(OCC(=O)N2CCN(c3nc(N)nc4sc(CCc5ccc(F)cc5)nc34)CC2)cc1 [Example 225, methyl 4-(2-(4-(5-amino-2-(4-fluorophenethyl)thiazolo[5,4-d]pyrimidin-7-yl)piperazin-1-yl)-2-oxoethoxy)benzoate] | > 10 |
| COc1ccc(CCc2nc3c(N4CCN(C(=O)COc5ccc(Br)cc5)CC4)nc(N)nc3s2)cc1OC [Example 256, 1-(4-(5-amino-2-(3,4-dimethoxyphenethyl)thiazolo[5,4-d]pyrimidin-7-yl)piperazin-1-yl)-2-(4-bromophenoxy)ethanone] | > 10 |
| O=C(COc1ccc(Cl)cc1)N1CCN(c2ncnc3sc(-c4ccc(F)cc4)nc23)CC1 [Example 301, 1-(4-(2-(4-fluorophenyl)thiazolo[5,4-d]pyrimidin-7-yl)piperazin-1-yl)-2-(4-chlorophenoxy)ethanone] | 2.06 |
| Nc1nc(N2CCN(C(=O)COc3ccc(Br)cc3)CC2)c2nc(Cc3ccc(F)cc3)sc2n1 [Example 231, 1-(4-(5-amino-2-(4-fluorobenzyl)thiazolo[5,4-d]pyrimidin-7-yl)piperazin-1-yl)-2-(4-bromophenoxy)ethanone] | 2.63 |
| COc1ccc(OCC(=O)N2CCN(c3nc(N)nc4sc(Cc5ccc(F)cc5)nc34)CC2)cc1 [Example 230, 1-(4-(5-amino-2-(4-fluorobenzyl)thiazolo[5,4-d]pyrimidin-7-yl)piperazin-1-yl)-2-(4-methoxyphenoxy)ethanone] | 2.21 |
| Nc1nc(N2CCN(C(=O)COc3cccc(Cl)c3)CC2)c2nc(CCc3ccc(F)cc3)sc2n1 [Example 228, 1-(4-(5-amino-2-(4-fluorophenethyl)thiazolo[5,4-d]pyrimidin-7-yl)piperazin-1-yl)-2-(3-chlorophenoxy)ethanone] | > 10 |
| Nc1nc(N2CCN(C(=O)COc3ccc(F)cc3)CC2)c2nc(-c3ccc(F)cc3)sc2n1 [Example 233, 1-(4-(5-amino-2-(4-fluorophenyl)thiazolo[5,4-d]pyrimidin-7-yl)piperazin-1-yl)-2-(4-fluorophenoxy)ethanone] | > 10 |
| COc1ccc(OCC(=O)N2CCN(c3nc(N)nc4sc(CCc5ccc(Br)cc5)nc34)CC2)cc1 [Example 298, 1-(4-(5-amino-2-(4-bromophenethyl)thiazolo[5,4-d]pyrimidin-7-yl)piperazin-1-yl)-2-(4-methoxyphenoxy)ethanone] | > 10 |
| COc1ccc(OCC(=O)N2CCN(c3nc(N)nc4sc(CCCCc5ccc(F)cc5)nc34)CC2)cc1 [Example 293, 1-(4-(5-amino-2-(4-(4-fluorophenyl)butyl)thiazolo[5,4-d]pyrimidin-7-yl)piperazin-1-yl)-2-(4-methoxyphenoxy)ethanone] | 0.83 |
| Nc1nc(N2CCN(C(=O)COc3ccc(O)cc3)CC2)c2nc(CCc3ccc(F)cc3)sc2n1 [Example 224, 1-(4-(5-amino-2-(4-fluorophenethyl)thiazolo[5,4-d]pyrimidin-7-yl)piperazin-1-yl)-2-(4-hydroxyphenoxy)ethanone] | 3.94 |

same assay, conditions: cytotoxicity on HSB-2 cells, two days incubation, WST-1 read-out

| Compound | IC50 [µM] |
| --- | --- |
| Nc1nc(N2CCN(C(=O)COc3ccc(Br)cc3)CC2)c2nc(-c3ccc(F)cc3)sc2n1 [Example 235, 1-(4-(5-amino-2-(4-fluorophenyl)thiazolo[5,4-d]pyrimidin-7-yl)piperazin-1-yl)-2-(4-bromophenoxy)ethanone] | 0.55 |
